Tests used:
in vitro = details: human, liver microsomes
Description: Apparent total intrinsic clearance in human liver microsomes

physchem = details: octanol/water, pH 7.4
MDR1 = experiment: in vitro; details: dog, MDCK-MDR1, pH 7.4
Description: Efflux ratio of permeability from basolateral to apical side to apical to basolateral side of MDCK cells expressing MDR1 at pH 7.4

[1] = molecular target: ALK tyrosine kinase receptor (Homo sapiens, UniProt Q9UM73)
[2] = molecular target: ALK tyrosine kinase receptor (Homo sapiens, UniProt Q9UM73, L1196M)
[3] = molecular target: BDNF/NT-3 growth factors receptor (Homo sapiens, UniProt Q16620)
Description: Inhibition of TRKB (unknown origin) by off-chip mobility shift assay

[4] = molecular target: Tyrosine-protein kinase FRK (Homo sapiens, UniProt P42685); experiment: Inhibition of FRK (unknown origin) by TR-FRET-based Z'-LYTE assay
[5] = AUC in rat CSF at 10 mg/kg, po; assay type: ADME, organism-based, Plasma; parameters: dose 10 mg/kg, route oral
Rattus norvegicus = experiment: fCmax in rat at 10 mg/kg, po qd; assay type: ADME, organism-based; parameters: dose 10 mg/kg, route oral; details: in vivo
Focal adhesion kinase 1 = Focal adhesion kinase 1 (Homo sapiens, UniProt Q05397)
Description: Inhibition of PTK2 (unknown origin) by TR-FRET-based Z'-LYTE assay

[6] = Plasma clearance in rat at 1 mg/kg, iv qd; assay type: ADME, organism-based; parameters: dose 1 mg/kg, route intravenous
[7] = Oral bioavailability in rat at 10 mg/kg qd; assay type: ADME, organism-based; details: in vivo
[8] = Cmax in rat at 10 mg/kg, po qd; assay type: ADME, organism-based; parameters: dose 10 mg/kg, route oral; details: in vivo
[9] = Fraction unbound in rat brain at 2.4 uM; assay type: ADME, tissue-based
[10] = molecular target: Protein-tyrosine kinase 2-beta (Homo sapiens, UniProt Q14289)
Description: Inhibition of PTK2B (unknown origin) by TR-FRET-based Z'-LYTE assay

[11] = AUC (0 to 24 hrs) in rat at 10 mg/kg, po qd; assay type: ADME, organism-based; parameters: time < 24 hr, dose 10 mg/kg, route oral; details: plasma
[12] = Half life in rat at 1 mg/kg, iv qd; assay type: ADME, organism-based; parameters: dose 1 mg/kg, route intravenous; details: in vivo
[13] = molecular target: NT-3 growth factor receptor (Homo sapiens, UniProt Q16288)
Description: Inhibition of NRTK3 (unknown origin) by TR-FRET-based Z'-LYTE assay

[14] = molecular target: Tyrosine-protein kinase Fes/Fps (Homo sapiens, UniProt P07332); experiment: Inhibition of FES (unknown origin) by TR-FRET-based Z'-LYTE assay
[15] = fAUC in rat CSF at 10 mg/kg, po; assay type: ADME, organism-based, Cerebrospinal fluid; parameters: dose 10 mg/kg, route oral; details: in vivo
[16] = Volume of distribution at steady state in rat at 1 mg/kg, iv qd; assay type: ADME, organism-based; parameters: dose 1 mg/kg, route intravenous; details: in vivo, read-out: Vdss
[17] = molecular target: High affinity nerve growth factor receptor (Homo sapiens, UniProt P04629); experiment: Inhibition of […] (unknown origin) by TR-FRET-based Z'-LYTE assay
Activated CDC42 kinase 1 = Activated CDC42 kinase 1 (Homo sapiens, UniProt Q07912)
Description: Inhibition of TNK2 (unknown origin) by TR-FRET-based Z'-LYTE assay

[18] = Fraction unbound in rat plasma at 2.4 uM; assay type: ADME, cell-free
[19] = AUC in rat brain at 10 mg/kg, po; assay type: ADME, organism-based; parameters: dose 10 mg/kg, route oral
[20] = Tmax in rat at 10 mg/kg, po qd; assay type: ADME, organism-based; parameters: dose 10 mg/kg, route oral; details: in vivo
[21] = AUC (infinity) in rat at 1 mg/kg, iv qd; assay type: ADME, organism-based; parameters: time infinity, dose 1 mg/kg, route intravenous; details: plasma
[22] = AUC in rat plasma at 10 mg/kg, po; assay type: ADME, organism-based; parameters: dose 10 mg/kg, route oral
[23] = molecular target: Leukocyte tyrosine kinase receptor (Homo sapiens, UniProt P29376); experiment: Inhibition of LTK (unknown origin) by TR-FRET-based Z'-LYTE assay
Plasma [24] = experiment: fAUC in rat plasma at 10 mg/kg, po; assay type: ADME, organism-based; parameters: dose 10 mg/kg, route oral; details: in vivo
Plasma [25] = experiment: Average plasma concentration in rat at 10 mg/kg, po qd; assay type: ADME, organism-based; parameters: dose 10 mg/kg, route oral; details: in vivo
[26] = molecular target: Tyrosine-protein kinase Fer (Homo sapiens, UniProt P16591); experiment: Inhibition of FER (unknown origin) by TR-FRET-based Z'-LYTE assay
Brain = experiment: fAUC in rat brain at 10 mg/kg, po; assay type: ADME, organism-based; parameters: dose 10 mg/kg, route oral; details: in vivo

BDNF/NT-3 growth factors receptor, sequence (Q16620 whole entry): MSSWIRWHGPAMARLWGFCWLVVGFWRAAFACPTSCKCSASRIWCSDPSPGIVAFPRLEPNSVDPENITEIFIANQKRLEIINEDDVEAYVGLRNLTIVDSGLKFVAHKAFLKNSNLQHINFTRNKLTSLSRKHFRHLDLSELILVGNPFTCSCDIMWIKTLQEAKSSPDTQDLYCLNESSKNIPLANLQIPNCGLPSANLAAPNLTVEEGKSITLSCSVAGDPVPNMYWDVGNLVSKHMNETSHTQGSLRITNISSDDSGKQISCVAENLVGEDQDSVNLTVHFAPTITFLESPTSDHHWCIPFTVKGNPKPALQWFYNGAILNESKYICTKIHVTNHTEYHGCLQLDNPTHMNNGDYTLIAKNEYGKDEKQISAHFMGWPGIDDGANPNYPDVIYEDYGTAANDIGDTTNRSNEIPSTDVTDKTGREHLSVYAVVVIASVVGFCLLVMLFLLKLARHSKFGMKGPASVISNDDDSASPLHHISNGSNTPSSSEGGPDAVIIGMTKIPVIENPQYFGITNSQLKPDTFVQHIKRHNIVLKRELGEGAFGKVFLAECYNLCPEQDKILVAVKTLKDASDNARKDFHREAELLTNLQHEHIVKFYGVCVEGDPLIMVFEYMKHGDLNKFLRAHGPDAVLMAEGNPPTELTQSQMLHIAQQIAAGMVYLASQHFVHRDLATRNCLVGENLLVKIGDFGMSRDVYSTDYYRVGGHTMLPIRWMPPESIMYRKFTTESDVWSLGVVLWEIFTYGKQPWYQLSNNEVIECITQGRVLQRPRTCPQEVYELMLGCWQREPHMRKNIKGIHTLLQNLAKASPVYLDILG
Tyrosine-protein kinase Fer, sequence (P16591 whole entry): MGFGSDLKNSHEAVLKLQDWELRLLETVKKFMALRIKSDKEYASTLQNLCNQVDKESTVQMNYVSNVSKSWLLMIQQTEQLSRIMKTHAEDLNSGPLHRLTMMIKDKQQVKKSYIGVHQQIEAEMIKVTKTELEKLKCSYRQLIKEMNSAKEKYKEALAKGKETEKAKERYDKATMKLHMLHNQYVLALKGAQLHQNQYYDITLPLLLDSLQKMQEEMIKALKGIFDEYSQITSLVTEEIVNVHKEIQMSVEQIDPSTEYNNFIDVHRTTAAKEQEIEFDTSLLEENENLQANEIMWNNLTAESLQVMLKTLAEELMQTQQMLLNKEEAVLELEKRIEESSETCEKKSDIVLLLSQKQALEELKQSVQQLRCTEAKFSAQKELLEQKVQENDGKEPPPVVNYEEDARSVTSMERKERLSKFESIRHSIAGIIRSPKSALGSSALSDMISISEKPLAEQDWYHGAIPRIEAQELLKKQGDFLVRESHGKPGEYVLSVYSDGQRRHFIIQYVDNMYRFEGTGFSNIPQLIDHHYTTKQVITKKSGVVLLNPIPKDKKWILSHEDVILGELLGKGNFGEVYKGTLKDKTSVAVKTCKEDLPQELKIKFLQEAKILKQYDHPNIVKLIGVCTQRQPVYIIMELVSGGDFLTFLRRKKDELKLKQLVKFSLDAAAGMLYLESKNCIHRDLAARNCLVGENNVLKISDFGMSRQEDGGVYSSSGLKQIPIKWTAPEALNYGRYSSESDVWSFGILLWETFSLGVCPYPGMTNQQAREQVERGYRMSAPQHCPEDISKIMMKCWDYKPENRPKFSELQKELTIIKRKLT
ALK tyrosine kinase receptor (Homo sapiens, UniProt Q9UM73), sequence (Q9UM73 whole entry): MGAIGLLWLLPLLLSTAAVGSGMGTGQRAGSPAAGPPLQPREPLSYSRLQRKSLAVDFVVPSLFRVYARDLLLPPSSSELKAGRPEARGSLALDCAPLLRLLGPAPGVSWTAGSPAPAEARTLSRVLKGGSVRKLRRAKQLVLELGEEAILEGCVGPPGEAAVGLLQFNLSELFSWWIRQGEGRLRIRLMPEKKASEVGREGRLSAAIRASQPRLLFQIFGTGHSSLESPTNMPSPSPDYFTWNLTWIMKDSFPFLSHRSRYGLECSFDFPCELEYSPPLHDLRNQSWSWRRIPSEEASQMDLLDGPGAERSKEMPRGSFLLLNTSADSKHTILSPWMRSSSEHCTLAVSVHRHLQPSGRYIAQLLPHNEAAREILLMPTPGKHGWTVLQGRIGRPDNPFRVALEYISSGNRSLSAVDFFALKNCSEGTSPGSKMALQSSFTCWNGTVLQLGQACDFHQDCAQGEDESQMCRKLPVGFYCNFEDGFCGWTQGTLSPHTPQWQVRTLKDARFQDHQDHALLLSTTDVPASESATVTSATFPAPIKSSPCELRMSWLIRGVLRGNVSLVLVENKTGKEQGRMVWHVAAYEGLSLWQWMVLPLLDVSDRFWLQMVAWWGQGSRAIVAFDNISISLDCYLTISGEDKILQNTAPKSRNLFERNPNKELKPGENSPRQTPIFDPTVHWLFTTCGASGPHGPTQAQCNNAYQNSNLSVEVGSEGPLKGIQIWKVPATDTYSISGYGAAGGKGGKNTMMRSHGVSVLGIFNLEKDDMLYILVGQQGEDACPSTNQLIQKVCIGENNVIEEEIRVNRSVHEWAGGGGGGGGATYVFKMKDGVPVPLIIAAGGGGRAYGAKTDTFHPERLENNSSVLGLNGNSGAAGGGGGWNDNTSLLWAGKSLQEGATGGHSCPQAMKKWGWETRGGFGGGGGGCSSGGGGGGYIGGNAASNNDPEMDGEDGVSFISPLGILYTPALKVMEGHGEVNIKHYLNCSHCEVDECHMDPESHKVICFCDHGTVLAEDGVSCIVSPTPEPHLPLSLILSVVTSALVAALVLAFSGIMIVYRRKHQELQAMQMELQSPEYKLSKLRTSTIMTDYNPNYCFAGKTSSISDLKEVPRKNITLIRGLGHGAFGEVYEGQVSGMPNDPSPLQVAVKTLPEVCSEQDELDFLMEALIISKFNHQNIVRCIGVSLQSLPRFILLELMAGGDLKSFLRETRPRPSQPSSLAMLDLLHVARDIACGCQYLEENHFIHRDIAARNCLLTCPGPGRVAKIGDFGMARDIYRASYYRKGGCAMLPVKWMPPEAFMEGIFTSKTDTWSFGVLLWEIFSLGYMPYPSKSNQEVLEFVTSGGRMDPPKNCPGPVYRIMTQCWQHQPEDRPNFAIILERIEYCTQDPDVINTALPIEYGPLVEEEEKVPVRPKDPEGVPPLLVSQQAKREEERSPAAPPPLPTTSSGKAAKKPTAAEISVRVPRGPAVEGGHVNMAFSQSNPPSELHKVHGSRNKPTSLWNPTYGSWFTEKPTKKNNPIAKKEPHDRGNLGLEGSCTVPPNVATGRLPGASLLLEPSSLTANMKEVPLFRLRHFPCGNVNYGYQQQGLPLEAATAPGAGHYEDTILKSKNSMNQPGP
High affinity nerve growth factor receptor, sequence (P04629 whole entry): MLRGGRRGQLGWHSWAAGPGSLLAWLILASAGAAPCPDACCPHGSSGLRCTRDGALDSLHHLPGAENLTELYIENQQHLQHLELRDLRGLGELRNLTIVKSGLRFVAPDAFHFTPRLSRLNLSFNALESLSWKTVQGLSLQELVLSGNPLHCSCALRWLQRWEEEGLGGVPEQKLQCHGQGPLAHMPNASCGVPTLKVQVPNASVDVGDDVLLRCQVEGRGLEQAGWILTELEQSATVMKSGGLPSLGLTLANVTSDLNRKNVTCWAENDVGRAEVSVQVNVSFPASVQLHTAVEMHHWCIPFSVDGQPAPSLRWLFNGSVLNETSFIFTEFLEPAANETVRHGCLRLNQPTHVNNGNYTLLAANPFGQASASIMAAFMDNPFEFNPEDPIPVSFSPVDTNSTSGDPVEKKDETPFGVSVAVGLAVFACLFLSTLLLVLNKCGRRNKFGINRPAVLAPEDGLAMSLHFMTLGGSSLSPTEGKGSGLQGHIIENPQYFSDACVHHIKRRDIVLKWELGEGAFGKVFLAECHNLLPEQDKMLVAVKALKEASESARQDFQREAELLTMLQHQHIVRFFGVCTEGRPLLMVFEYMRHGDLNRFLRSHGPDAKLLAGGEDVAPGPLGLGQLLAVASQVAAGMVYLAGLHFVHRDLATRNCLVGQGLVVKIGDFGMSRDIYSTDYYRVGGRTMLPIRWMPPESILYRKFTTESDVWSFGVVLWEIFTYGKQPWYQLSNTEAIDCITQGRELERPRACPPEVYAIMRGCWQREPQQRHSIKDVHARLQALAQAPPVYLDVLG
Focal adhesion kinase 1, sequence (Q05397 whole entry): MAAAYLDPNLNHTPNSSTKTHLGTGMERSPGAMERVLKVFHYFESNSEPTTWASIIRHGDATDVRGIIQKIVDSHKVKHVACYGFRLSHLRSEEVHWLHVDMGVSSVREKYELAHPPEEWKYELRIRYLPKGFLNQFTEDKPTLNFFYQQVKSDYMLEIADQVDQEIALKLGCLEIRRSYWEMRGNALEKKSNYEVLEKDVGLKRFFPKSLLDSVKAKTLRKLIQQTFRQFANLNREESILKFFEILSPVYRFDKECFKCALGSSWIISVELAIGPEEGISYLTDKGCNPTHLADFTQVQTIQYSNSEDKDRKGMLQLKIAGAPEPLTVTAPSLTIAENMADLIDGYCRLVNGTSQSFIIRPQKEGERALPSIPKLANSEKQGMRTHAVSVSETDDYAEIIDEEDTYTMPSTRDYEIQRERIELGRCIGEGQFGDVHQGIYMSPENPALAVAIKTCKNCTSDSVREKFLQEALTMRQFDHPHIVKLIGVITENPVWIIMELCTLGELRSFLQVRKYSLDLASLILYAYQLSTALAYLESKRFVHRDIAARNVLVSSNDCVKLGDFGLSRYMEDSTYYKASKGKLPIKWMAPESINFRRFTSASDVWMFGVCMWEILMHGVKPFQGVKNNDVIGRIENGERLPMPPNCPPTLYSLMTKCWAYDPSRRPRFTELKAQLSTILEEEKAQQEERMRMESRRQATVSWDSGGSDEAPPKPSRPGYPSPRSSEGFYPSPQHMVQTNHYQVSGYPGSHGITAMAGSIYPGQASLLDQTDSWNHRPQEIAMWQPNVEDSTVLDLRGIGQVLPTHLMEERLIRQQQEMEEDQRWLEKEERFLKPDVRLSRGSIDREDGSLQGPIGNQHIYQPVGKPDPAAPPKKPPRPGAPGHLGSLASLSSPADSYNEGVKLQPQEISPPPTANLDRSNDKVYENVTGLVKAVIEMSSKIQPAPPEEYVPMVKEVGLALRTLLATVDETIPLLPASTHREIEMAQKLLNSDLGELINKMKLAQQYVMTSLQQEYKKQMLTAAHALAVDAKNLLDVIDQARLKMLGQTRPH

C[C@@H](Oc1cc(-c2cnnn2C)cnc1N)c1cc(F)ccc1-n1nccn1
CLint scaled (in vitro): 8 mL/min/kg

Cc1nc([C@](C)(O)CO)sc1-c1cnc(N)c(O[C@H](C)c2cc(F)ccc2-n2nccn2)c1
CLint scaled (in vitro): 13 mL/min/kg

Cc1nn(C)cc1-c1cnc(N)c(O[C@H](C)c2cc(F)ccc2-n2nccn2)c1
CLint scaled (in vitro): 66 mL/min/kg

COc1ccc(F)cc1[C@@H](C)Oc1cc(-c2cnnn2C)cnc1N
CLint scaled (in vitro): 25 mL/min/kg | logD (physchem): 2.4

CNC(=O)c1ccc(F)cc1[C@@H](C)Oc1cc(-c2cn(C)nc2C)cnc1N
CLint scaled (in vitro): 28 mL/min/kg | logD (physchem): 2.1

Cc1nn(C)cc1-c1cnc(N)c(O[C@H](C)c2cc(F)ccc2C(=O)N(C)C)c1
efflux ratio (MDR1): 7.6 | CLint scaled (in vitro): 58 mL/min/kg | logD (physchem): 2.1 | Ki [1]: 22 nM | Ki [2]: 310 nM

COc1ncccc1-c1cnc(N)c(O[C@H](C)c2cc(F)ccc2-n2nccn2)n1
CLint scaled (in vitro): 41 mL/min/kg | logD (physchem): 4

CNC(=O)c1ccc(F)cc1[C@@H](C)Oc1nc(-c2cccnc2OC)cnc1N
CLint scaled (in vitro): 76 mL/min/kg | logD (physchem): 3

C[C@@H](Oc1cc(-c2cccc(S(C)(=O)=O)c2)cnc1N)c1cc(F)ccc1-n1nccn1
CLint scaled (in vitro): 10 mL/min/kg | logD (physchem): 3.4

N#Cc1[nH]nc2c1-c1cnc(N)c(c1)OCc1cc(F)ccc1OCC2
logD (physchem): 3

N#Cc1[nH]nc2c1-c1cnc(N)c(c1)OCc1cc(F)ccc1OCCC2
logD (physchem): 3.6

Cn1ncc2c1-c1cnc(N)c(c1)OCc1cc(F)ccc1OCCC2
logD (physchem): 3.4

Cn1ncc2c1-c1cnc(N)c(c1)OCc1cc(F)ccc1OCCCC2
logD (physchem): 3.1

C[C@H]1Oc2cc(cnc2N)-c2c(nn(C)c2C#N)CCOc2ccc(F)cc21
logD (physchem): 3.3

C[C@H]1Oc2cc(cnc2N)-c2c(nn(C)c2C#N)CCCOc2ccc(F)cc21
logD (physchem): 3.8

Cc1nn(C)c2c1-c1cnc(N)c(c1)O[C@H](C)c1cc(F)ccc1C(=O)N(C)C2
Ki [3]: 0.5 nM | CLint scaled (in vitro): 8.6 mL/min/kg | logD (physchem): 2.2

Cc1nn(C)c2c1-c1cnc(N)c(c1)O[C@@H](C)c1cc(F)ccc1C(=O)N(C)C2
CLint scaled (in vitro): 8 mL/min/kg | logD (physchem): 2.2

Cc1nn(C)c2c1-c1cnc(N)c(c1)OCc1cc(F)ccc1C(=O)N(C)C2
CLint scaled (in vitro): 8.4 mL/min/kg | logD (physchem): 2

Cc1nn(C)c2c1-c1cnc(N)c(n1)O[C@H](C)c1cc(F)ccc1C(=O)N(C)C2
CLint scaled (in vitro): 8 mL/min/kg | logD (physchem): 2.5

Cc1nn(C)c2c1-c1cnc(N)c(n1)O[C@@H](C)c1cc(F)ccc1C(=O)N(C)C2
CLint scaled (in vitro): 9.7 mL/min/kg | logD (physchem): 2.5

COc1nn(C)c2c1-c1cnc(N)c(c1)O[C@H](C)c1cc(F)ccc1C(=O)N(C)C2
CLint scaled (in vitro): 8.3 mL/min/kg | logD (physchem): 2.4

COc1nn(C)c2c1-c1cnc(N)c(n1)O[C@H](C)c1cc(F)ccc1C(=O)N(C)C2
CLint scaled (in vitro): 23.5 mL/min/kg | logD (physchem): 2.7

C[C@H]1Oc2cc(cnc2N)-c2cc(S(C)(=O)=O)ccc2CN(C)C(=O)c2ccc(F)cc21
CLint scaled (in vitro): 9.1 mL/min/kg | logD (physchem): 1.8

C[C@H]1Oc2nc(cnc2N)-c2cc(S(C)(=O)=O)ccc2CN(C)C(=O)c2ccc(F)cc21
CLint scaled (in vitro): 8 mL/min/kg | logD (physchem): 2.2

C[C@H]1Oc2cc(cnc2N)-c2c(C3CC3)nn(C)c2CN(C)C(=O)c2ccc(F)cc21
Ki [3]: 0.4 nM | CLint scaled (in vitro): 14.6 mL/min/kg | logD (physchem): 2.9

Cc1cnc2nc3c(n2c1)-c1cnc(N)c(c1)O[C@H](C)c1cc(F)ccc1C(=O)N(C)C3
efflux ratio (MDR1): 20.2 | Ki [3]: 77 nM | CLint scaled (in vitro): < 8 mL/min/kg | logD (physchem): 1.7

C[C@H]1Oc2nc(cnc2N)-c2c(nc3ccc(C#N)cn23)CN(C)C(=O)c2ccc(F)cc21
Ki [3]: 65 nM | CLint scaled (in vitro): < 8 mL/min/kg | logD (physchem): 2.4

C[C@H]1Oc2cc(cnc2N)-c2c(nn(C)c2C#N)CN(C)C(=O)c2ccc(F)cc21 [LORLATINIB]
IC50 [4]: 53 nM | AUC [5]: 3.48 µM·h | fCmax (Rattus norvegicus): 1530 nM | IC50 (Focal adhesion kinase 1): 17 nM | clearance [6]: 15.5 mL/min/kg | bioavailability [7]: 100% | Cmax [8]: 1730 ng/mL | fraction unbound at 2.4 µM [9]: 0.12 | IC50 [10]: 14 nM | AUC at 24 h [11]: 14900 ng·h/mL | half-life [12]: 2.7 h | IC50 [13]: 46 nM | IC50 [14]: 6 nM | CLint scaled (in vitro): < 8 mL/min/kg | logD (physchem): 2.3 | fAUC [15]: 3.475 µM·h | Vd [16]: 2.7 L/kg | IC50 [17]: 24 nM | IC50 (Activated CDC42 kinase 1): 17 nM | fraction unbound at 2.4 µM [18]: 0.36 | AUC [19]: 19.6 µM·h | Tmax [20]: 1.3 h | AUC(0-inf) [21]: 1150 ng·h/mL | AUC [22]: 30.7 µM·h | IC50 [23]: 2.7 nM | fAUC (Plasma [24]): 11.052 µM·h | Cave (Plasma [25]): 551 nM | IC50 [26]: 3.3 nM | fAUC (Brain): 2.355 µM·h

Source: ChEMBL document CHEMBL3286195, “Discovery of (10R)-7-amino-12-fluoro-2,10,16-trimethyl-15-oxo-10,15,16,17-tetrahydro-2H-8,4-(metheno)pyrazolo[4,3-h][2,5,11]-benzoxadiazacyclotetradecine-3-carbonitrile (PF-06463922), a macrocyclic inhibitor of anaplastic lymphoma kinase (ALK) and c-ros oncogene 1 (ROS1) with preclinical brain …” (J Med Chem, 2014)
